The values below come from ChEMBL document CHEMBL1138545, “Synthesis and antimicrobial activities of some new triazolothiadiazoles bearing 4-methylthiobenzyl moiety” (2009).

Assay type in all cases: functional
Assay [1] relates to Staphylococcus aureus. Briefly: Antibacterial activity against Staphylococcus aureus ATTC […] after 24 hrs by the disk diffusion method. Particulars: for MIC: Staphylococcus aureus, 24 h. For orientation: Agar diffusion results depend on both activity and mobility in agar.
The test system of assay [2] is Klebsiella pneumoniae. Put plainly: Antibacterial activity against Klebsiella pneumoniae after 24 hrs by the disk diffusion method. To be noted: for MIC: Klebsiella pneumoniae, 24 h.
In assay [3] the test system is Aspergillus fumigatus. Briefly: Antifungal activity against Aspergillus fumigatus NICM 902 after 3 to days by serial plate dilution method. To be noted: for MIC: Aspergillus fumigatus, NICM 902.
In assay [4] the test system is Escherichia coli. Put plainly: Antibacterial activity against Escherichia coli ATTC 25922 after 24 hrs by the disk diffusion method. Particulars: for MIC: Escherichia coli, ATTC 25922, 24 h.
Assay [5] deals with Trichophyton mentagrophytes. Briefly: Antifungal activity against Trichophyton mentagrophytes after 3 to days by serial plate dilution method. Particulars: for MIC: Trichophyton mentagrophytes.
In assay [6] the test system is Aspergillus flavus. Put plainly: Antifungal activity against Aspergillus flavus NICM 524 after 3 to days by serial plate dilution method. Particulars: for MIC: Aspergillus flavus, NICM 524.
Assay [7] has as its system Candida albicans. Put plainly: Antifungal activity against Candida albicans NICM 300 after 3 to days by serial plate dilution method. To be noted: for MIC: Candida albicans, NICM 300.
For assay [8], the system named is Pseudomonas aeruginosa. Put plainly: Antibacterial activity against Pseudomonas aeruginosa ATTC 27853 after 24 hrs by the disk diffusion method. To be noted: for MIC: Pseudomonas aeruginosa, ATTC 27853, 24 h.

Converted amounts (≈) assume the structure as drawn.

As for `CSc1ccc(Cc2nnc3sc(-c4cc(F)c(Cl)cc4Cl)nn23)cc1`, the “inhibition zone (IZ)” value in assay [1] came to 19 mm; in assay [2] it was 23 mm; in assay [4] it was 20 mm; in assay [8] it was 17 mm. Besides, the MIC (in general, the smallest concentration in the dilution series that meets the test's criterion for growth inhibition) in assay [1] was determined as 12.5 µg/mL (≈ 29.4 µM); in assay [2], 6 µg/mL (≈ 14.1 µM); in assay [3], 6 µg/mL (≈ 14.1 µM); in assay [4], 6 µg/mL (≈ 14.1 µM); in assay [5] it was 6 µg/mL (≈ 14.1 µM); in assay [6], 6 µg/mL (≈ 14.1 µM). For the same compound, the figures for the MIC in assay [7] and in assay [8] were 6 µg/mL (≈ 14.1 µM) and 12.5 µg/mL (≈ 29.4 µM), respectively. Moreover, the “diameter of the inhibition zone (DIZ)” value in assay [3] worked out at 21 mm; in assay [5], 19 mm; in assay [6], 18 mm; in assay [7] it was 20 mm.
Consider `CSc1ccc(Cc2nnc3sc(-c4ccc(-c5ccc([N+](=O)[O-])cc5)o4)nn23)cc1`, for which the “inhibition zone (IZ)” value in assay [1] turned out to be 16 mm; in assay [2], 20 mm; in assay [4] it was 17 mm; in assay [8], 10 mm. For the same compound, the MIC turned out to be 25 µg/mL (≈ 55.6 µM) in assay [1]; 12.5 µg/mL (≈ 27.8 µM) in assay [2]; 25 µg/mL (≈ 55.6 µM) in assay [3]; 25 µg/mL (≈ 55.6 µM) in assay [4]; 25 µg/mL (≈ 55.6 µM) in assay [5]; 25 µg/mL (≈ 55.6 µM) in assay [6]. The MIC in assay [7] stood at 12.5 µg/mL (≈ 27.8 µM); in assay [8], 25 µg/mL (≈ 55.6 µM). Also, the “diameter of the inhibition zone (DIZ)” value in assay [3] is listed as 14 mm; in assay [5], 11 mm; in assay [6] it was 11 mm; in assay [7], 17 mm.
For the compound `CSc1ccc(Cc2nnc3sc(-c4ccc(-c5ccc(C)cc5)o4)nn23)cc1`, the “inhibition zone (IZ)” value in assay [1] came out at 18 mm; in assay [2], 23 mm; in assay [4], 18 mm; in assay [8], 18 mm. Further, the MIC is 12.5 µg/mL (≈ 29.9 µM) in assay [1]; 6 µg/mL (≈ 14.3 µM) in assay [2]; 12.5 µg/mL (≈ 29.9 µM) in assay [3]; 6 µg/mL (≈ 14.3 µM) in assay [4]; 12.5 µg/mL (≈ 29.9 µM) in assay [5]; 25 µg/mL (≈ 59.7 µM) in assay [6]. Also, the MIC in assay [7] was found to be 25 µg/mL (≈ 59.7 µM); in assay [8], 6 µg/mL (≈ 14.3 µM). Besides, the “diameter of the inhibition zone (DIZ)” value was 21 mm in assay [3], 17 mm in assay [5], 11 mm in assay [6] and 14 mm in assay [7].
As for `CSc1ccc(Cc2nnc3sc(-c4cc(Cl)ccc4Cl)nn23)cc1`, the “inhibition zone (IZ)” value in assay [1] is recorded as 15 mm; in assay [2] it was 13 mm; in assay [4], 12 mm; in assay [8], 10 mm. Besides, the MIC in assay [1], in assay [2], in assay [3], in assay [4], in assay [5] and in assay [6] was 25 µg/mL (≈ 61.4 µM) in each case. The MIC in assay [7] and in assay [8] was 25 µg/mL (≈ 61.4 µM) throughout. Moreover, the “diameter of the inhibition zone (DIZ)” value stood at 11 mm in assay [3], 13 mm in assay [5], 11 mm in assay [6] and 15 mm in assay [7].
With `CSc1ccc(Cc2nnc3sc(Cc4ccccc4)nn23)cc1`, the “inhibition zone (IZ)” value is on record as 11 mm in assay [1], 14 mm in assay [2], 11 mm in assay [4] and 15 mm in assay [8]. Further, the MIC in assay [1], in assay [2], in assay [3], in assay [4], in assay [5] and in assay [6] was 25 µg/mL (≈ 70.9 µM) each time. The MIC amounted to 6 µg/mL (≈ 17 µM) in assay [7] and 25 µg/mL (≈ 70.9 µM) in assay [8]. Further, the “diameter of the inhibition zone (DIZ)” value in assay [3] amounted to 13 mm; in assay [5], 12 mm; in assay [6] it was 10 mm; in assay [7] it was 17 mm.
As to `CSc1ccc(Cc2nnc3sc(-c4ccc(-c5ccc(Cl)cc5[N+](=O)[O-])o4)nn23)cc1`, the “inhibition zone (IZ)” value in assay [1] is listed as 18 mm; in assay [2] it was 23 mm; in assay [4], 19 mm; in assay [8], 18 mm. Also, the MIC in assay [1] is 12.5 µg/mL (≈ 25.8 µM); in assay [2], 6 µg/mL (≈ 12.4 µM); in assay [3] it was 6 µg/mL (≈ 12.4 µM); in assay [4] it was 6 µg/mL (≈ 12.4 µM); in assay [5], 6 µg/mL (≈ 12.4 µM); in assay [6] it was 12.5 µg/mL (≈ 25.8 µM). Moreover, the MIC in assay [7] is 12.5 µg/mL (≈ 25.8 µM); in assay [8], 6 µg/mL (≈ 12.4 µM). In addition, the “diameter of the inhibition zone (DIZ)” value in assay [3] was 22 mm; in assay [5], 17 mm; in assay [6] it was 18 mm; in assay [7] it was 18 mm.
Take `CSc1ccc(Cc2nnc3sc(-c4ccc(Br)cc4)nn23)cc1`: the “inhibition zone (IZ)” value in assay [1] is given as 15 mm; in assay [2], 20 mm; in assay [4], 13 mm; in assay [8], 16 mm. Besides, the MIC in assay [1] worked out at 25 µg/mL (≈ 59.9 µM); in assay [2], 25 µg/mL (≈ 59.9 µM); in assay [3], 25 µg/mL (≈ 59.9 µM); in assay [4], 25 µg/mL (≈ 59.9 µM); in assay [5] it was 25 µg/mL (≈ 59.9 µM); in assay [6] it was 12.5 µg/mL (≈ 30 µM). Further, the MIC in assay [7] and in assay [8] was 25 µg/mL (≈ 59.9 µM) each time. For the same compound, the “diameter of the inhibition zone (DIZ)” value was determined as 14 mm in assay [3], 13 mm in assay [5], 15 mm in assay [6] and 13 mm in assay [7].
For `CSc1ccc(Cc2nnc3sc(-c4ccc([N+](=O)[O-])cc4Cl)nn23)cc1`, the “inhibition zone (IZ)” value is 19 mm in assay [1], 23 mm in assay [2], 18 mm in assay [4] and 17 mm in assay [8]. In addition, the MIC in assay [1] was determined as 12.5 µg/mL (≈ 29.9 µM); in assay [2], 6 µg/mL (≈ 14.4 µM); in assay [3], 6 µg/mL (≈ 14.4 µM); in assay [4], 12.5 µg/mL (≈ 29.9 µM); in assay [5], 6 µg/mL (≈ 14.4 µM); in assay [6], 12.5 µg/mL (≈ 29.9 µM). In addition, the MIC in assay [7] was found to be 6 µg/mL (≈ 14.4 µM); in assay [8], 12.5 µg/mL (≈ 29.9 µM). Besides, the “diameter of the inhibition zone (DIZ)” value in assay [3] was 22 mm; in assay [5] it was 19 mm; in assay [6] it was 17 mm; in assay [7] it was 20 mm.
`CSc1ccc(Cc2nnc3sc(-c4ccc(-c5ccc(Br)cc5)o4)nn23)cc1`: the “inhibition zone (IZ)” value in assay [1] was 12 mm; in assay [2] it was 15 mm; in assay [4] it was 11 mm; in assay [8], 11 mm. The MIC came to 25 µg/mL (≈ 51.7 µM) in assay [1]; 25 µg/mL (≈ 51.7 µM) in assay [2]; 6 µg/mL (≈ 12.4 µM) in assay [3]; 25 µg/mL (≈ 51.7 µM) in assay [4]; 6 µg/mL (≈ 12.4 µM) in assay [5]; 12.5 µg/mL (≈ 25.9 µM) in assay [6]. The minimum inhibitory concentration (MIC) in assay [7] worked out at 6 µg/mL (≈ 12.4 µM); in assay [8] it was 25 µg/mL (≈ 51.7 µM). In addition, the “diameter of the inhibition zone (DIZ)” value stood at 20 mm in assay [3], 20 mm in assay [5], 17 mm in assay [6] and 18 mm in assay [7].
On to `CSc1ccc(Cc2nnc3sc(-c4ccc(F)cc4)nn23)cc1`, for which the “inhibition zone (IZ)” value in assay [1] came out at 18 mm; in assay [2], 25 mm; in assay [4], 19 mm; in assay [8], 17 mm. Besides, the MIC in assay [1] was determined as 12.5 µg/mL (≈ 35.1 µM); in assay [2], 6 µg/mL (≈ 16.8 µM); in assay [3] it was 12.5 µg/mL (≈ 35.1 µM); in assay [4], 12.5 µg/mL (≈ 35.1 µM); in assay [5] it was 12.5 µg/mL (≈ 35.1 µM); in assay [6], 12.5 µg/mL (≈ 35.1 µM). Besides, the figures for the MIC in assay [7] and in assay [8] were 25 µg/mL (≈ 70.1 µM) and 12.5 µg/mL (≈ 35.1 µM), respectively. Further, the “diameter of the inhibition zone (DIZ)” value was 19 mm in assay [3], 17 mm in assay [5], 16 mm in assay [6] and 10 mm in assay [7].
For `COc1ccc(-c2ccc(-c3nn4c(Cc5ccc(SC)cc5)nnc4s3)o2)cc1`, the “inhibition zone (IZ)” value in assay [1] is given as 14 mm; in assay [2] it was 18 mm; in assay [4], 16 mm; in assay [8], 17 mm. Also, the MIC stood at 25 µg/mL (≈ 57.5 µM) in assay [1]; 12.5 µg/mL (≈ 28.8 µM) in assay [2]; 6 µg/mL (≈ 13.8 µM) in assay [3]; 12.5 µg/mL (≈ 28.8 µM) in assay [4]; 6 µg/mL (≈ 13.8 µM) in assay [5]; 12.5 µg/mL (≈ 28.8 µM) in assay [6]. Besides, the MIC in assay [7] was determined as 25 µg/mL (≈ 57.5 µM); in assay [8], 12.5 µg/mL (≈ 28.8 µM). In addition, the “diameter of the inhibition zone (DIZ)” value in assay [3] is reported as 22 mm; in assay [5], 18 mm; in assay [6] it was 18 mm; in assay [7] it was 10 mm.
For the compound `Cc1cc(C2CCCCC2)n(O)c(=O)c1.NCCO` [CICLOPIROX OLAMINE], the “diameter of the inhibition zone (DIZ)” value in assay [3] was 22 mm; in assay [5] it was 20 mm; in assay [6], 18 mm; in assay [7] it was 20 mm. Further, the MIC in assay [3] came out at 6 µg/mL; in assay [5], 6 µg/mL; in assay [6], 12.5 µg/mL; in assay [7] it was 6 µg/mL.
